In US20190209539A1, “THIOHYDANTOIN ANDROGEN RECEPTOR ANTAGONISTS FOR THE TREATMENT OF CANCER” (Janssen Pharmaceutica NV, priority 2016, published 2019):
Where “and” joins values, the source holds several entries; their conditions need not be identical. Equal entries are not always repeated.

Columns and labels:
LNCaP WT = test: LNCaP Proliferation Assay (LNCaP WT); format: cell-based; conditions: Homo sapiens, 96 h, 4 days, normalized to 0.1 nM R1881 stimulation
Description: (§1) LNCaP cells were expanded in RPMI 10% FBS in T150 flasks. The cells were dislodged with 0.25% Trypsin, washed in complete media, centrifuged (300 g, 3 min), and the supernatant aspirated. The cells were resuspended in RPMI phenol-red free media with 1% charcoal-stripped serum (CSS) and counted using a ViCELL (Beckman-Coulter). 7500 cells were added to each well of a white optical bottom 384-well plate and incubated for 2 days at 37° C. 5% CO2. Compound dilutions were prepared in RPMI CSS using 50 mM stock solutions and added to the cells either alone (agonist mode) or in combination with 0.1nM R1881 (antagonist mode). The plates were incubated for 4 days, followed by addition of CellTiter-Glo Luminescent Cell Viability kit reagent (Promega). The plates were placed on a shaker at 3000 rpm for 10 minutes and then read on an EnVision plate reader (Perkin Elmer) using Luminescence assay default settings. The data was analyzed, normalized to 0.1 nM R1881 stimulation, and plotted in GraphPad Prism.

LNCaP F876L = test: LNCaP Proliferation Assay (LNCaP F876L); format: cell-based; conditions: Homo sapiens, 96 h, 4 days, normalized to 0.1 nM R1881 stimulation
Description: as §1

rGABA-gated Cl− channel = test: GABA-gated Cl Channel Antagonist Radioligand Binding Assay ([35S]-TBPS, cerebral cortex membranes); design: species or system rat; conditions: 3 nM [35S]-TBPS
Description: GABA-gated Cl Chanel assays were performed at CEREP according to the following method. Membrane homogenates of cerebral cortex (120 μg protein) were incubated for 120 min at 22° C. with 3 nM [^35S]-TBPS in the absence or presence of the test compound in a buffer containing 50 mM Na2HPO4/KH2PO4 (pH 7.4) and 500 mM NaCl. Nonspecific binding was determined in the presence of 20 μM picrotoxinin. Following incubation, the samples were filtered rapidly under vacuum through glass fiber filters (GF/B, Packard) presoaked with 0.3% PEI and rinsed several times with ice-cold 50 mM Tris-HCl using a 96-sample cell harvester (Unifilter, Packard). The filters were dried then counted for radioactivity in a scintillation counter (Topcount, Packard) using a scintillation cocktail (Microscint 0, Packard). The results are expressed as a percent inhibition of the control radio ligand specific binding. The standard reference compound is picrotoxinin, which was tested in each experiment at several concentrations to obtain a competition curve from which its ICso was calculated. In this assay, the following representative compounds disclosed herein had recorded activities at a 10 μM single point concentration in the GABA-gated Cl-Channel Binding Assay.

VCaP cells = test: Prostate Cancer Cell Viability Assay-VCaP; format: cell-based; conditions: Homo sapiens, 120 h, 5 days incubation, CellTiter-Glo
Description: VCaP cells were counted and seeded into black 384-well plates with clear bottoms at a concentration of 125,000 cells per mL in phenol red-free DMEM containing 10% Charcoal Stripped Serum. 16 μL of the suspension was added per well and incubated for 48 h to allow the cells to adhere. After 48 hours, a 12 point serial semilog dilution of each compound was added to the cells in 16 μL at a final concentration of 100 μM to 0.0003 μM. The compounds of Formula (I) were also run in antagonist mode using 30 pM R1881 in which 8 μL of the compound was added to the cells followed by 8 μL of R1881. After 5 days of incubation at 37° C., 16 μL Of CellTiter-Glo (Promega) was added to the cells and the relative luminescence units (RLUs) of each well determined using the Envision. The percent stimulation and % inhibition were determined for each sample and plotted using GraphPad Prism.

GR (human) = target: T1, GR (human) (Homo sapiens, UniProt P04150); test: Radioligand binding to GR ([3H]dexamethasone, IM-9 cells cytosol)
T1 construct: GR (human) (agonist radioligand) IM-9 cells (cytosol); endogenous in cells; host or cells: IM-9 cells (cytosol)
T1 sequence (P04150 1-777): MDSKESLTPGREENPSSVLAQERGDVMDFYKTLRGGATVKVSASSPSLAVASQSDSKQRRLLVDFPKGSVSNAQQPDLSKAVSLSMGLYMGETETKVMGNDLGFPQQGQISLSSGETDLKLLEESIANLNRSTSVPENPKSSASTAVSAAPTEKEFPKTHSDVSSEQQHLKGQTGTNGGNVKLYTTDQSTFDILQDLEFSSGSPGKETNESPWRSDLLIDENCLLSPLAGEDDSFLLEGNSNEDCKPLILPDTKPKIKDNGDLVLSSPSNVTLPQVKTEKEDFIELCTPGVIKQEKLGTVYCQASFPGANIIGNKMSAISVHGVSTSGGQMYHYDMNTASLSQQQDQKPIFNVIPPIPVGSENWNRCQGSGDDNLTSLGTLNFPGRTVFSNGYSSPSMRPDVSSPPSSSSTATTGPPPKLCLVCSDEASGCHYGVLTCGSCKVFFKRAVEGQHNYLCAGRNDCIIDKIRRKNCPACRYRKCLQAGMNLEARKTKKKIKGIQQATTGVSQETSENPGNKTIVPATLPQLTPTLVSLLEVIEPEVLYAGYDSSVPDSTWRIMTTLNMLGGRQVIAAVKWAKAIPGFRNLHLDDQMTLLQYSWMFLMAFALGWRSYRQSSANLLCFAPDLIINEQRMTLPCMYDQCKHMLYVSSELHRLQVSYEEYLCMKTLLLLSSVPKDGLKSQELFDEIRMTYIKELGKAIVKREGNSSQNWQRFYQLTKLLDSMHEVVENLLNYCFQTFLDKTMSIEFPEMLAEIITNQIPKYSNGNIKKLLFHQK
Description: Radioligand binding assays were performed with the cell extracts and ligands as detailed below. Complete methodology is contained within the cited publications. Kd values were determined by Non-Specific Incubation Detection Method.
GR (human) (agonist radioligand) IM-9 cells (cytosol) [^3H]dexamethasone 1.5 nM 1.5 nM triamcinolone (10 μM) 6 h 4° C. Scintillation counting (Clark, A. F et al. (1996) Invest. Ophtalmol. Vis. Sci., 37: 805-813). ER (nonselective) (human) (agonist radioligand) MCF-7 cells (cytosol) [^3H]estradiol 0.4 nM 0.2 nM 17-β-estradiol (6 μM) 20 h 4° C. Scintillation counting (Parker, G. J et al.(2000) J. Biomol. Screen., 5: 77-88).
The results are expressed as a percent of control specific binding measured specific binding *100 control specific binding and as a percent inhibition of control specific binding 100-(measured specific binding*100) control specific binding obtained in the presence of compoundn.
The IC50 values (concentration causing a half-maximal inhibition of control specific binding) and Hill coefficients (nH) were determined by non-linear regression analysis of the competition curves generated with mean replicate values using Hill equation curve fitting.
The inhibition constants (Ki) were calculated using the Cheng Prusoff equation:
wherein L=concentration of radioligand in the assay, and KD=affinity of the radioligand for the receptor. […]

`CN1CCC(Oc2ccc(N3C(=S)N(c4cnc(C#N)c(C(F)(F)F)c4)C(=O)C34CCC4)cc2)CC1` [Cpd 85, 5-[8-[4-[(1-methyl-4-piperidyl)oxy]phenyl]-5-oxo-7-thioxo-6,8-diazaspiro[3.4]octan-6-yl]-3-(trifluoromethyl)pyridine-2-carbonitrile] showed an IC50 (LNCaP WT) of 3.29 µM, an IC50 (LNCaP F876L) of 8.87 µM and an IC50 (rGABA-gated Cl− channel) of 13 µM. For the same compound, the “% inhibition @ 10 μM” value (rGABA-gated Cl− channel; 10 μM single point) was 42% and 49%, the IC50 (VCaP cells) was 0.076 µM and the Ki (GR (human); Cheng Prusoff, [3H]-dexamethasone) was 9.9 µM. For the same compound, the IC50 (GR (human); [3H]-dexamethasone 1.5 nM, IM-9 cytosol) was 20 µM.
